This assay addresses T1, Muscarinic acetylcholine receptor M1 (Homo sapiens, UniProt P11229).
T1 sequence (P11229 whole entry): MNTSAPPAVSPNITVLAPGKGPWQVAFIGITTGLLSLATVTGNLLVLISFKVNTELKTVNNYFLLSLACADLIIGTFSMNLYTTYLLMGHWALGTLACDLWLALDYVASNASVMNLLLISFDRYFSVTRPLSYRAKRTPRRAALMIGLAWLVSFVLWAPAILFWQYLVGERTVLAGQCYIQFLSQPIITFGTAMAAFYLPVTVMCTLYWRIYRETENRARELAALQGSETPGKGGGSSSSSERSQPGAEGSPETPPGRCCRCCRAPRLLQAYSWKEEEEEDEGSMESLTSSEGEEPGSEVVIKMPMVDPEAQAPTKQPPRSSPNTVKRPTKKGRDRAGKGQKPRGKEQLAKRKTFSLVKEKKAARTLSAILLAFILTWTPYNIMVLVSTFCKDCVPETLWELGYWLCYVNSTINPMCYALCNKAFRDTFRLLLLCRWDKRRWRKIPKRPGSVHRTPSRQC
Kind of assay: Determination of Allosteric Potency EC50 Values for Muscarinic M1 Receptor: A stable CHO cell line expressing recombinant human Muscarinic M1 receptor and pCRE-Luc reporter system was used for cell-based assay. The assay offers a non-radioactive based approach to determine binding of a compound to GPCRs. In this specific assay, the level of intracellular cyclic AMP which is modulated by activation or inhibition of the receptor is measured. The recombinant cells harbor luciferase reporter gene under the control of cAMP response element.The above cells were grown in 96 well clear bottom white plates in Hams F12 medium containing 10% fetal bovine serum (FBS). Prior to the addition of compounds or standard agonist, cells were serum starved overnight. Increasing concentrations of test compounds were added along with EC20 of acetylcholine in OptiMEM medium to the cells. The incubation was continued at 37° C. in CO2 incubator for 4 hours. Medium was removed and cells were washed with phosphate buffered saline. The cells were lysed and luciferase activity was measured in a Luminometer. Luminescence units were plotted against the compound concentrations using Graphpad software. EC50 values of the compounds were defined as the concentration required in stimulating the luciferase activity by 50% in presence of EC20 of acetylcholine. (In a reporter assay the amount or activity of a reporter protein is the signal.)

For orientation: EC50 means the concentration that produces a half-maximal response. For the molecule `O=C(N[C@H]1CCCC[C@@H]1O)C1=CN(Cc2ccccc2)c2cccnc2O1`, the EC50 was 1000 nM.

Source of the values: ChEMBL document CHEMBL5727053, “Muscarinic M1 receptor positive allosteric modulators” (2019).
